Patent US20250354192A1, “METHODS FOR QUANTIFYING LIVE BACTERIA” (priority 2022, published 2025)

Key:
[1] = tested on: Salmonella Typhimurium and Klebsiella pneumoniae; assay: Two-step CLICK labeling with or without EDA, PIPER non-capture assay; type: cell-based; settings: 1 mM EDA, last 30 min of incubation; 25 μM CF488 picolyl azide
Description: FIG. 7 depicts both components of the two-step CLICK reaction are required for cell labeling. Salmonella Typhimurium (top panel) and Klebsiella pneumoniae (bottom panel) were grown overnight at 37° C. The next day, cells were diluted into fresh media and grown until they reached log-phase. The last 30 min of incubation were carried out in the presence or absence of 1 mM of EDA (D-propargylglycine, AK Scientific, Union City, CA). Cells were harvested by centrifugation (10 min 10,000 g), and supernatant was discarded. Bacteria were then washed, fixed by incubation with 4% paraformaldehyde, pelleted by centrifugation (10 min 10,000 g), and supernatant was discarded. […] An automated bacterial image recognition algorithm determined labeled cell counts (graphs).

[2] = tested on: innate live bacterial populations in whole carcass rinsates; assay: 3-step metabolic labeling of whole carcass rinsates with or without EDA, PIPER; type: cell-based; settings: two whole carcass rinsate samples
Description: Experimental Detail: Whole carcass rinsate samples were prepared as per FSIS USDA guidance using two separate whole chickens from the grocery store obtained prior to “use by” date. Sodium polyanethol sulfonate was added to 0.05% to limit blood clotting. Prior to 3-step metabolic labeling, an aliquot from each rinsate was removed for serial dilution and plating on APC petrifilm (3M, Saint Paul, MN) and incubated as per manufacturer instructions to evaluate the number of total viable bacteria by the “gold standard” method. 1 mL rinsate aliquots were used for incubation with, or without EDA, as a control for non-specific staining with the fluorophore. The 1st step of labeling was carried out by adding 5 μg/mL chloramphenicol and 1 mM EDA, where indicated, followed by 90 min incubation at 37° C. […]
FIG. 25 depicts how 3-step metabolic labeling detects innate live bacterial populations in whole carcass rinsates. FIG. 25A depicts PIPER images of innate populations of live bacteria detected by 3-step metabolic labeling in two separate whole carcass rinsate samples. […] To convert the PIPER counts into the number of live bacteria per swab, the values were corrected for the volume of the viewing window relative to the total sample volume loaded into the cartridge lane, and the fraction of the total sample volume analyzed.

C#CC[C@@H](N)C(=O)O [EDA, D-propargylglycine]
signal of click labeling in the presence or absence of EDA [1]: No signal is observed when the click reagents are added in the absence of EDA
signal on omitting EDA from the 1st step of labeling [2]: dramatic reduction of the signal
